Several values for one entry are separate records, joined by “and”; a condition that tells them apart may be missing. Equal values may be shown once.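 Protocol summary: plate cells (96-well), add compound at 5 concentrations, incubate 48 h, interpolate endpoints linearly. Abbreviation: GI50, concentration required for 50% inhibition of growth. TGI: total growth inhibition.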
How the values were obtained:
Experiment in all cases: growth of human tumour cells (NCI), 48 h
[1] = tested on: XF 498 CNS
[2] = tested on: KM20L2 colon
[3] = tested on: RXF-631 renal
[4] = tested on: LXFL 529 NSCLC
[5] = tested on: MDA-N
[6] = tested on: M19-MEL melanoma
[7] = tested on: DMS 114 small cell lung
[8] = tested on: BT-549 breast
[9] = tested on: T-47D breast

CC(=O)Oc1ccc(C(c2ccc(OC(C)=O)cc2)c2ccccn2)cc1
TGI [1]: > 86.1 µM | TGI [2]: > 100 µM | TGI [3]: > 100 µM | TGI [4]: > 100 µM | TGI [5]: > 100 µM | TGI [6]: > 100 µM | TGI [7]: > 68.4 µM | GI50 [8]: 0.313 µM | GI50 [9]: 0.204 µM | TGI [9]: 0.532 µM and 1.19 µM

CCOC(=O)c1c(C)c(C)n2c1NC(=O)C2
TGI [1]: 61.1 µM | TGI [2]: > 100 µM | TGI [3]: > 100 µM | TGI [4]: > 100 µM | TGI [5]: > 100 µM | TGI [6]: > 100 µM | TGI [7]: > 100 µM | TGI [8]: > 100 µM | TGI [9]: 70.7 µM

CC1=C(C(=O)Nc2ccc([N+](=O)[O-])cc2)C(c2ccccc2F)C(C(=O)Nc2ccc([N+](=O)[O-])cc2)=C(C)N1
TGI [1]: 6.94 µM | TGI [2]: 29.8 µM | TGI [3]: > 100 µM | TGI [4]: 59.6 µM | TGI [6]: 55.5 µM | TGI [7]: 87.8 µM

COc1ccc2nc(NC(=O)C(=O)C(C#N)c3ccc(Cl)c(Cl)c3)sc2c1 (stereo unspecified)
TGI [1]: > 100 µM | TGI [2]: > 100 µM | TGI [3]: > 100 µM | TGI [4]: > 100 µM | TGI [6]: > 100 µM | TGI [7]: > 100 µM

From PubChem BioAssay (NCI)
